Measurements as given in the supplement of paper PMC11616607.

How the values were obtained:
Experiment in all cases: drug sensitivity score (DSS) from 5-point dose-response viability curve (DSS (area-under-curve based score)); higher = more sensitive (stronger growth inhibition or killing); extreme values may be limits of the assay
Settings in all cases: exposure time: 72 h; concentration range: 5 concentrations over 10,000-fold range
CAOV3 = system: CAOV3
Summary of the method: (§1)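 For the drug sensitivity score, obtained per cell line and drug in Breeze software, larger values mean greater sensitivity. No response corresponds to a score of zero. Ovarian cancer and normal ovarian cells were seeded at 1,500 per well into 384-well plates already holding acoustically dispensed drugs (Echo 550, DMSO or water, five concentrations over a 10,000-fold range) and incubated 3 days at 37°C, 5% CO2. CellTiter-Glo luminescence on a PHERAstar FS gave the viability readout.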

COV318 = system: COV318
Summary of the method: as §1

JHOS2 = system: JHOS2
Summary of the method: as §1

OVCAR5 = system: OVCAR5
Summary of the method: as §1

OV90 = system: OV90
Summary of the method: as §1

COV362 = system: COV362
Summary of the method: as §1

OVCAR4 = system: OVCAR4
Summary of the method: as §1

OVCAR8 = system: OVCAR8
Summary of the method: as §1

Kuramochi = system: Kuramochi
Summary of the method: as §1

HOSE1C = system: HOSE1C
Summary of the method: as §1

Ovsaho = system: Ovsaho
Summary of the method: as §1

HOSE2C = system: HOSE2C
Summary of the method: as §1

Row | SMILES | drug sensitivity score (CAOV3) | drug sensitivity score (COV318) | drug sensitivity score (JHOS2) | drug sensitivity score (OVCAR5) | drug sensitivity score (OV90) | drug sensitivity score (COV362) | drug sensitivity score (OVCAR4) | drug sensitivity score (OVCAR8) | drug sensitivity score (Kuramochi) | drug sensitivity score (HOSE1C) | drug sensitivity score (Ovsaho) | drug sensitivity score (HOSE2C)
1 | C=CC(=O)Nc1cccc(Nc2nc(Nc3ccc(N4CCN(C(C)=O)CC4)cc3OC)ncc2C(F)(F)F)c1 [Rociletinib] | 7.9 | 2.6 | 2.9 | 7.5 | 5.5 | 3.3 | 3 | 5.8 | 3.6 | 4.2 | 6.9 | 6.8
2 | CC[C@@]1(O)C(=O)OCc2c1cc1n(c2=O)Cc2cc3c(CN(C)C)c(O)ccc3nc2-1 [Topotecan] | 18.2 | 6.3 | 11 | 10.1 | 15.4 | 5.7 | 7.2 | 13.5 | 5.4 | 26.6 | 8.5 | 24.8
3 | COCCNCc1ccc(-c2cc3nccc(Oc4ccc(NC(=O)C5(C(=O)Nc6ccc(F)cc6)CC5)cc4F)c3s2)nc1 [Sitravatinib] | 1.9 | 0.5 | 1.2 | 4.5 | 1.6 | 2.3 | 0.7 | 0.5 | 2.5 | 2.6 | 0 | 3.3
4 | C=C1C[C@@H]2[C@H](CC[C@]3(C)C(=O)CC[C@@H]23)[C@@]2(C)C=CC(=O)C=C12 [Exemestane] | 0 | 0 | 0 | 0 | 0.4 | 0 | 0 | 0 | 0 | 0 | 0 | 0
5 | COc1cc(Nc2ncc(F)c(Nc3ccc4c(n3)NC(=O)C(C)(C)O4)n2)cc(OC)c1OC [Tamatinib] | 0 | 0.3 | 0 | 4.5 | 0 | 0 | 0 | 0 | 1.5 | 0 | 3.8 | 6.2
6 | C=CC(=O)N1CC/C(=C\c2ccc(F)c([N+](=O)[O-])c2)C(=O)/C(=C/c2ccc(F)c([N+](=O)[O-])c2)C1 [VLX1570] | 18.7 | 12.2 | 17.5 | 17.1 | 16.8 | 9.4 | 18.7 | 26.8 | 18 | 23.3 | 25 | 21.4
7 | CC(C)C[C@H](NC(=O)[C@H](CCc1ccccc1)NC(=O)CN1CCOCC1)C(=O)N[C@@H](Cc1ccccc1)C(=O)N[C@@H](CC(C)C)C(=O)[C@@]1(C)CO1 [Carfilzomib] | 24.6 | 26.5 | 25.5 | 24 | 27.6 | 20.2 | 23.4 | 21.5 | 12.4 | 27.4 | 28.4 | 28.4
8 | Cc1c(F)cc(C(=O)NC2CC2)cc1-c1ccc(C(=O)NCC(C)(C)C)cn1 [Losmapimod] | 0 | 0.4 | 0 | 0.9 | 1.5 | 0 | 0 | 0.2 | 2 | 0 | 0.7 | 0
9 | COc1cc(OC2CCN(C)CC2)ccc1Nc1ncc2c(n1)n(C1CCCC1)c(=O)n2C [AZ 3146] | 3.6 | 2.7 | 2.3 | 6.2 | 4.8 | 0.8 | 1.5 | 4.6 | 3.9 | 0.9 | 4.7 | 2.4
10 | CCn1c(=O)c(-c2ccc(Cl)cc2Cl)cc2cnc(Nc3ccc(N4CCNCC4)c(F)c3)nc21 [FRAX486] | 4.2 | 4.2 | 3.7 | 4.9 | 5.5 | 6.3 | 5.1 | 3.8 | 4.3 | 7.6 | 7 | 12.1
11 | C=CC(=O)Nc1cc2c(Nc3ccc(F)c(Cl)c3)ncnc2cc1OCCCN1CCOCC1 [Canertinib] | 13.2 | 4.3 | 7.5 | 8 | 7.3 | 5.9 | 7.7 | 8.4 | 8 | 8.4 | 8.3 | 8.2
12 | CN(Cc1cnc2nc(N)nc(N)c2n1)c1ccc(C(=O)N[C@@H](CCC(=O)O)C(=O)O)cc1 [Methotrexate] | 16.7 | 0 | 6.5 | 13.8 | 10.6 | 14.5 | 14.8 | 12.3 | 13 | 13.7 | 2.9 | 13.2
13 | Nc1nc2[nH]cc(CCc3ccc(C(=O)N[C@@H](CCC(=O)O)C(=O)O)cc3)c2c(=O)[nH]1 [Pemetrexed] | 14.1 | 0 | 0 | 7.6 | 3.7 | 12.7 | 4.2 | 18.2 | 5.8 | 22.9 | 6.1 | 20.4
14 | Cc1ccc(C(=O)Nc2cccc(C(F)(F)F)c2)cc1Nc1nc(-c2cccnc2)nc2c1cnn2C [NVP-BHG712] | 0 | 2.8 | 2.1 | 8.8 | 0.1 | 5.6 | 1.4 | 4.9 | 2.5 | 2.2 | 2.9 | 2.7
15 | CCNc1nc(Nc2cc(F)c(C(=O)N3CCOCC3)cc2OC)ncc1C(F)(F)F [GNE-7915] | 0 | 0 | 0 | 0 | 0 | 0 | 0 | 0 | 0 | 0 | 0 | 0
16 | CCOc1cc2ncc(C#N)c(Nc3ccc(OCc4ccccn4)c(Cl)c3)c2cc1NC(=O)/C=C/CN(C)C [Neratinib] | 5.3 | 0 | 1.4 | 2.9 | 0 | 0 | 0.6 | 4.8 | 0.4 | 0 | 0 | 1
17 | Cn1c(Nc2ccc(C(F)(F)F)cc2)nc2cc(Oc3ccnc(-c4ncc(C(F)(F)F)[nH]4)c3)ccc21 [NVP-RAF265] | 2.2 | 0 | 1.2 | 0.4 | 4.2 | 0 | 0.3 | 1.9 | 0 | 6.9 | 1.7 | 4.5
18 | Cn1c(=O)n(-c2ccc(C(C)(C)C#N)cc2)c2c3cc(-c4cnc5ccccc5c4)ccc3ncc21 [Dactolisib] | 11 | 13.4 | 13.7 | 15 | 16.7 | 3.7 | 15.3 | 14.4 | 14.4 | 20.5 | 15.8 | 13.9
19 | CO[C@@H](C)Cn1c(=O)n(C)c2cnc3ccc(-c4cncc(C(C)(C)O)c4)cc3c21 | 9.2 | 6.8 | 7.8 | 8.7 | 11.9 | 3.8 | 9.8 | 9.5 | 8.3 | 15.1 | 10.9 | 9.9
20 | CC(C)[C@H]1C(=O)N[C@@H](CCCNC(=N)N)C(=O)NCC(=O)N[C@@H](CC(=O)O)C(=O)N[C@H](Cc2ccccc2)C(=O)N1C [Cilengitide] | 0 | 0 | 1.6 | 1.1 | 2.5 | 5.6 | 2.9 | 0.2 | 5.4 | 0 | 17.7 | 3.5
21 | COc1cc([C@@H]2c3cc4c(cc3[C@@H](O[C@@H]3O[C@@H]5CO[C@@H](C)O[C@H]5[C@H](O)[C@H]3O)[C@H]3COC(=O)[C@H]23)OCO4)cc(OC)c1O [Etoposide] | 9.2 | 1.7 | 4.5 | 4.1 | 6.1 | 0.1 | 0 | 8.6 | 1.8 | 6.5 | 7 | 10.1
22 | Cn1cc(C2=C(c3cn(C4CCN(Cc5ccccn5)CC4)c4ccccc34)C(=O)NC2=O)c2ccccc21 [Enzastaurin] | 0 | 0 | 0.1 | 2.6 | 0 | 1.6 | 0 | 4.2 | 0 | 0.2 | 2 | 1.5
23 | CC(=O)OC[C@H]1O[C@@H]([S-])[C@H](OC(C)=O)[C@@H](OC(C)=O)[C@@H]1OC(C)=O.CCP(CC)CC.[Au+] [Auranofin] | 9.3 | 5 | 4.1 | 1.3 | 3.5 | 0 | 1.7 | 3.4 | 2.9 | 13.3 | 7.8 | 13.3
24 | Cc1ccc(-n2nc(C(C)(C)C)cc2NC(=O)Nc2ccc(OCCN3CCOCC3)c3ccccc23)cc1 [Doramapimod] | 0 | 0 | 0 | 1.1 | 1.5 | 0 | 2.4 | 1.8 | 0.6 | 5 | 2.9 | 2.9
25 | CN1CCN(c2nc(C3=C(c4c[nH]c5ccccc45)C(=O)NC3=O)c3ccccc3n2)CC1 [Sotrastaurin] | 1.2 | 0 | 0.2 | 0 | 0 | 1.5 | 0 | 0.1 | 0 | 0 | 0 | 0
26 | CN1CCN(CCOc2cc(OC3CCOCC3)c3c(Nc4c(Cl)ccc5c4OCO5)ncnc3c2)CC1 [Saracatinib] | 8.2 | 0.4 | 3.1 | 9.2 | 5 | 5.6 | 3.8 | 5.1 | 9.7 | 2 | 7 | 5
27 | CNC(=O)c1ccccc1Sc1ccc2c(/C=C/c3ccccn3)n[nH]c2c1 [Axitinib] | 5 | 0 | 0 | 0.8 | 0.1 | 0 | 0.2 | 2 | 0.4 | 1.9 | 0.8 | 6.2
28 | Cn1cncc1[C@@](N)(c1ccc(Cl)cc1)c1ccc2c(c1)c(-c1cccc(Cl)c1)cc(=O)n2C [Tipifarnib] | 3.1 | 5.2 | 3.1 | 4.3 | 4.7 | 1.7 | 4.7 | 4.2 | 6.8 | 9.2 | 7.5 | 3
29 | C=CC(=O)Nc1cccc(Oc2nc(Nc3ccc(N4CCN(C)CC4)cc3)nc3ccsc23)c1 [Olmutinib] | 0.3 | 0.3 | 0 | 0.7 | 0 | 0.6 | 0.1 | 0 | 0.7 | 0 | 0.5 | 0
